Experiments:
[1] = Linear regression of log fospropofol/propofol exposure (Cmax, AUC1, AUC2, AUC4) on time-to-treatment, migraine subjects vs healthy volunteers
From the text: (§1) Values for healthy volunteers are shown on the left.
as §1
Values for healthy Volunteers are shown on the left.
as §1, §1, §1

Sprague-Dawley rats = experiment: Study No. 15-1 (non-GLP): MTD and 7-day once daily oral gavage toxicity of fospropofol disodium; assay type: in vivo
From the text: (§2) The purpose of Study No. 15-1 (non-GLP) was to determine the maximum tolerated close (MTD) of fospropofol when administered by oral gavage to Sprague-Dawley rats (Phase 1) and to evaluate the potential toxicity of fospropofol in Sprague-Dawley rats when administered once daily by oral gavage for 7 days (Phase 2).

[2] = as above; assay type: in vivo, Sprague-Dawley rats; conditions: rat, in vivo; oral gavage, Sprague-Dawley rats
From the text: as §2

[3] = test system: adult women and men experiencing moderate to severe migraine headache; experiment: Study A17: safety-tolerability (TEAEs); conditions: N = 18, 800 mg oral
Description: The study is planned to complete approximately 85 subjects. • Enrolled subjects will be asked to come to the study site for treatment when they experience a qualifying migraine headache. Dosing must occur within 4 hours after onset of the migraine symptoms. If treatment at the study site is not feasible or practicable within 4 hours after onset of migraine symptoms, subjects should use their usual medication for that headache and attempt to visit the clinic for treatment as soon as possible (within 4 hours) after onset of their next migraine headache. Dosing must occur within 60 days after enrollment (see Post-enrollment Period below). • At clinic check-in for treatment, study personnel will verify eligibility for closing regarding the criteria for a qualifying headache and adherence to post-enrollment study restrictions (see Eligibility for Dosing below). • Treatment will consist of a single oral dose of fospropofol disodium. […] Because the prevalence of migraine headaches is higher in women than in men, efforts will be made to enroll at least 50% women. • Subjects must meet the general inclusion and exclusion criteria listed below (Inclusion Criteria and Exclusion Criteria) at screening to be enrolled in the study. To be eligible for fospropofol disodium treatment after onset of a migraine headache, enrolled subjects must meet criteria specific to the presenting headache at clinic check-in (see Qualifying Headache below) and adhere to study restrictions specific to the period between enrollment and clinic check-in (see Post-enrollment Restrictions below). • Inclusion Criteria Subjects must meet all of the following criteria at screening to be enrolled in the study: • 1. Written informed consent approved by the Institutional Review Board (IRB) given before any study-related procedures are performed • 2. […] Complete abstinence alone can be used as a method of contraception. • 6. […] Able to comprehend the nature of the study, capable of giving written informed consent, and able to communicate effectively with clinic staff (as assessed by the investigator) • 8. Available to volunteer for the entire study duration and willing to adhere to all protocol requirements, including the post-enrollment restrictions (see Post-enrollment Restrictions below) • 9. Agrees not to post any information related to the study on any website or social media site (e.g., Facebook, Twitter, LinkedIn, Google+, etc.) until the entire trial has been completed • 10. Willing to forgo rescue medicine for at least 2 hours after initiation of treatment with study drug (see In-Clinic Rescue Medicine) • Exclusion Criteria Subjects to whom any of the following criteria apply at screening will be excluded: • 1. History of hemiplegic migraine (at any time in the past). • 2. History of headaches of any type occurring on ≥15 days/month during any of the 3 months prior to screening. • 3.

## CC(C)c1cccc(C(C)C)c1O [propofol, 2,6-diisopropylphenol]
[1]; migraine subjects
  p of inverse linear association between log of the ratio AUC1 propofol to AUC1 fospropofol and time-to-treatment: 0.150
  p of inverse linear association between log of the ratio AUC2 propofol to AUC2 fospropofol and time-to-treatment: 0.157
[1]; migraine subjects vs healthy volunteers
  p of difference in distribution of log of the ratio AUC1 propofol to AUC1 fospropofol between migraine subjects and healthy volunteers: 0.0367

## CC(C)c1cccc(C(C)C)c1OCOP(=O)([O-])O.[Na+] [fospropofol disodium]
Sprague-Dawley rats; 150 mg/kg/day, Day 7, approximately 30 minutes postdose
  Mortality: one 150 mg/kg/day TK female was found dead
Sprague-Dawley rats; oral gavage, Sprague-Dawley rats
  MTD: 1500 mg/m^2/day
Sprague-Dawley rats; oral gavage, single fospropofol doses up to 300 mg/kg or 150 and 250 mg/kg/day once daily for 7 days
  Tolerability: well tolerated at all closes
[2]
  MTD at 7 days: 250 mg/kg/day
[3]; Mild
  Number of TEAEs, E, by severity: 5
  Number of subjects with at least 1 TEAE, by severity: 3
[3]; Moderate
  Number of TEAEs, E, by severity: 3
  Number of subjects with at least 1 TEAE, by severity: 3^1
[3]
  Dry mouth: number of TEAEs, E: 1
  Dry mouth: subjects with TEAE, %: 7.7%
  Dysgeusia: number of TEAEs, E: 1
  Dysgeusia: subjects with TEAE, %: 5.6%
  Gastrointestinal disorders: number of TEAEs, E: 2
  Gastrointestinal disorders: subjects with TEAE, %: 11.1%
  Genital paraesthesia: number of TEAEs, E: 2
  Genital paraesthesia: subjects with TEAE, %: 5.6%
  Nausea: number of TEAEs, E: 1
  Nausea: subjects with TEAE, %: 7.7%
  Nervous system disorders: number of TEAEs, E: 4
  Nervous system disorders: subjects with TEAE, %: 16.7%
  Number of TEAEs, E: 9
  Paraesthesia: number of TEAEs, E: 2
  Paraesthesia: subjects with TEAE, %: 11.1%
  Pruritus: number of TEAEs, E: 1
  Pruritus: subjects with TEAE, %: 5.6%
  Reproductive system and breast disorders: number of TEAEs, E: 2
  Reproductive system and breast disorders: subjects with TEAE, %: 5.6%
  Skin and subcutaneous tissue disorders: number of TEAEs, E: 1
  Skin and subcutaneous tissue disorders: subjects with TEAE, %: 5.6%
  Somnolence: number of TEAEs, E: 1
  Somnolence: subjects with TEAE, %: 5.6%
  Subjects with at least 1 TEAE, %: 33.3%
[3]; Possibly related
  Relation of TEAEs to study drug: Dry mouth: 0
  Relation of TEAEs to study drug: Dysgeusia: 0
  Relation of TEAEs to study drug: Gastrointestinal disorders: 1
  Relation of TEAEs to study drug: Genital paraesthesia: 0
  Relation of TEAEs to study drug: Nausea: 1
  Relation of TEAEs to study drug: Nervous system disorders: 0
  Relation of TEAEs to study drug: Number of TEAEs, E: 2
  Relation of TEAEs to study drug: Paraesthesia: 0
  Relation of TEAEs to study drug: Pruritus: 1
  Relation of TEAEs to study drug: Reproductive system and breast disorders: 0
  Relation of TEAEs to study drug: Skin and subcutaneous tissue disorders: 1
  Relation of TEAEs to study drug: Somnolence: 0
[3]; Probably related
  Relation of TEAEs to study drug: Dry mouth: 1
  Relation of TEAEs to study drug: Dysgeusia: 1
  Relation of TEAEs to study drug: Gastrointestinal disorders: 1
  Relation of TEAEs to study drug: Genital paraesthesia: 2
  Relation of TEAEs to study drug: Nervous system disorders: 4
  Relation of TEAEs to study drug: Number of TEAEs, E: 7
  Relation of TEAEs to study drug: Paraesthesia: 2
  Relation of TEAEs to study drug: Pruritus: 0
  Relation of TEAEs to study drug: Reproductive system and breast disorders: 2
  Relation of TEAEs to study drug: Skin and subcutaneous tissue disorders: 0
  Relation of TEAEs to study drug: Somnolence: 1
[3]; Severe
  Number of TEAEs, E, by severity: 1
  Number of subjects with at least 1 TEAE, by severity: 1^1

Reference: patent US12377110B2, “Fospropofol methods and compositions” (Epalex Corporation, priority 2019, dated 2025)
